Assay results: ChEMBL document CHEMBL1201862, “PubChem BioAssay data set” (2004)
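48-hour exposure; five concentrations; linearly interpolated endpoints. At the GI50, growth is halved.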 The source made the active and inactive calls. Cut-off read from the data, not from the text of the source: active = GI50 up to about 1.1 µM and inactive = higher.

Tests used:
Assay in all cases: inhibition of tumour cell growth, NCI panel, 48 h
DMS-273 = tested on: DMS-273
LXFL 529 = tested on: LXFL 529
RXF 631 = tested on: RXF 631
DLD-1 = tested on: DLD-1
M19-MEL = tested on: M19-MEL
DMS-114 = tested on: DMS-114
XF498 = tested on: XF498
KM-20L2 = tested on: KM-20L2
HOP-18 = tested on: HOP-18

COc1ccc(CCc2cc(OC)c(O)c(OC)c2)cc1
GI50 (DMS-273): 46.5 µM (inactive) | GI50 (LXFL 529): 54.8 µM (inactive) | GI50 (RXF 631): 88.1 µM (inactive) | GI50 (DLD-1): 60.1 µM (inactive) | GI50 (M19-MEL): 57.1 µM (inactive) | GI50 (DMS-114): 29 µM (inactive) | GI50 (XF498): 79.4 µM (inactive) | GI50 (KM-20L2): > 100 µM (inactive)

NC(=O)c1ccc([N+](=O)[O-])cc1
GI50 (DMS-273): > 100 µM (inactive) | GI50 (LXFL 529): > 100 µM (inactive) | GI50 (RXF 631): > 100 µM (inactive) | GI50 (DLD-1): > 100 µM (inactive) | GI50 (M19-MEL): > 100 µM (inactive) | GI50 (DMS-114): > 100 µM (inactive) | GI50 (XF498): > 100 µM (inactive) | GI50 (KM-20L2): > 100 µM (inactive)

N=C1C=CC(=C(c2ccc(N)cc2)c2ccc(N)cc2)C=C1
GI50 (LXFL 529): 1.57 µM (inactive) | GI50 (DLD-1): 5.12 µM (inactive) | GI50 (M19-MEL): 4.13 µM (inactive) | GI50 (DMS-114): 2.18 µM (inactive) | GI50 (XF498): 2.38 µM (inactive) | GI50 (KM-20L2): 4.3 µM (inactive)

O=C(O)C1CCC(=O)N1C(=O)COc1cc(Cl)c(Cl)cc1Cl (configuration not stated)
GI50 (DMS-273): > 100 µM (inactive) | GI50 (LXFL 529): > 100 µM (inactive) | GI50 (RXF 631): > 100 µM (inactive) | GI50 (M19-MEL): > 100 µM (inactive) | GI50 (DMS-114): > 100 µM (inactive) | GI50 (XF498): > 100 µM (inactive) | GI50 (KM-20L2): > 100 µM (inactive)

CCCCC1CC(c2ccc(Cl)cc2)=NO1 (configuration not stated)
GI50 (HOP-18): > 100 µM (inactive) | GI50 (DMS-273): > 100 µM (inactive) | GI50 (LXFL 529): > 100 µM (inactive) | GI50 (DLD-1): > 100 µM (inactive) | GI50 (M19-MEL): > 100 µM (inactive) | GI50 (DMS-114): > 100 µM (inactive)

N#Cc1ccccc1NC(=O)C(=O)C(C(=O)c1ccccc1F)C1OC(=O)c2ccccc21 (configuration not stated)
GI50 (DMS-273): 30.8 µM (inactive) | GI50 (LXFL 529): 31 µM (inactive) | GI50 (DLD-1): 46.8 µM (inactive) | GI50 (M19-MEL): 29.7 µM (inactive) | GI50 (DMS-114): 35.5 µM (inactive) | GI50 (XF498): 84.7 µM (inactive) | GI50 (KM-20L2): 76.7 µM (inactive)

Cn1nc(-c2ccccc2)c(C(=O)/C=C/c2ccc(F)cc2)c(N2CCCC2)c1=O
GI50 (HOP-18): 14.6 µM (inactive) | GI50 (DMS-273): 14.8 µM (inactive) | GI50 (LXFL 529): 12.8 µM (inactive) | GI50 (DLD-1): 11.2 µM (inactive) | GI50 (M19-MEL): 15.1 µM (inactive) | GI50 (DMS-114): 11.5 µM (inactive) | GI50 (XF498): 20.8 µM (inactive) | GI50 (KM-20L2): 13.1 µM (inactive)

COCCN1C2=CCCCC2=Nc2c(N)nc(N)nc21
GI50 (HOP-18): > 100 µM (inactive) | GI50 (DMS-273): > 100 µM (inactive) | GI50 (LXFL 529): > 100 µM (inactive) | GI50 (RXF 631): > 100 µM (inactive) | GI50 (DLD-1): > 100 µM (inactive) | GI50 (M19-MEL): 24.3 µM (inactive) | GI50 (DMS-114): > 100 µM (inactive) | GI50 (XF498): > 100 µM (inactive) | GI50 (KM-20L2): > 100 µM (inactive)

Cc1ccccc1-n1c(C)nc2c1C(=O)c1ccccc1C2=O
GI50 (DMS-273): 42.5 µM (inactive) | GI50 (M19-MEL): 22.8 µM (inactive) | GI50 (DMS-114): 31.1 µM (inactive)

CC#CC1C2CCCC1(CSc1ccccc1)NC(=O)O2 (configuration not stated)
GI50 (HOP-18): > 100 µM (inactive) | GI50 (DMS-273): > 100 µM (inactive) | GI50 (LXFL 529): > 100 µM (inactive) | GI50 (RXF 631): > 100 µM (inactive) | GI50 (DLD-1): > 100 µM (inactive) | GI50 (M19-MEL): > 100 µM (inactive) | GI50 (DMS-114): > 100 µM (inactive) | GI50 (XF498): > 100 µM (inactive) | GI50 (KM-20L2): > 100 µM (inactive)

C=C1C(=O)OC2/C=C(\C)C3OC3/C=C(/C(=O)OC)C(O)C(OC(=O)C3(C)OC3C)C12 (configuration not stated)
GI50 (DMS-273): 1.59 µM (inactive) | GI50 (LXFL 529): 1.36 µM (inactive) | GI50 (DLD-1): 1.03 µM (active) | GI50 (DMS-114): 0.435 µM (active)

O=C(c1ccc(Cl)cc1Cl)N(/N=C/C=C/c1ccccc1)c1nnc(-c2ccccc2)c(-c2ccccc2)n1
GI50 (DMS-273): > 100 µM (inactive) | GI50 (RXF 631): > 100 µM (inactive) | GI50 (DLD-1): > 100 µM (inactive) | GI50 (M19-MEL): > 100 µM (inactive) | GI50 (DMS-114): > 100 µM (inactive) | GI50 (XF498): > 100 µM (inactive) | GI50 (KM-20L2): > 100 µM (inactive)
